According to patent US20260028354A1, “TETRAHYDRONAPHTHALENE DERIVATIVES AS ESTROGEN RECEPTOR DEGRADERS” (REGENT OF THE UNIVERSITY OF MICHIGAN, priority 2022, published 2026):

Assay: Western blot analysis for "B" compounds
Assay type: cell-based
Details: read-out: Traditional Western Degradation Potency (DC50)
Procedure, shortened: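 Target protein levels given as relative mean band intensity over GAPDH from scanned immunoblots. Lysates of treated cells in RIPA buffer, equalized by BCA, separated on 10% gels and transferred to PVDF.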

| SMILES | DC50 [nM] |
| --- | --- |
| O=C1CCC(N2C(=O)c3cc4c(cc3C2=O)CN(CC(=O)N2CCC3(CC2)CCN(c2ccc([C@@H]5c6ccc(O)cc6CC[C@@H]5c5ccc(F)cc5)cc2)CC3)CC4)C(=O)N1 (mixture of isomers) [Compound B193, 2-(2,6-dioxopiperidin-3-yl)-6-(2-(9-(4-((1R,2S)-2-(4-fluorophenyl)-6-hydroxy-1,2,3,4-tetrahydronaphthalen-1-yl)phenyl)-3,9-diazaspiro[5.5]undecan-3-yl)-2-oxoethyl)-5,6,7,8-tetrahydro-1H-pyrrolo[3,4-g]isoquinoline-1,3(2H)-dione] | 10 to 100 |
| O=C1CCC(N2C(=O)c3cc4c(cc3C2=O)CN(CCN2CCC3(CC2)CN(c2ccc([C@@H]5c6ccc(O)cc6CC[C@@H]5c5ccccc5)cc2)C3)C4)C(=O)N1 (mixture of isomers) [Compound B196, 2-(2,6-dioxopiperidin-3-yl)-6-(2-(2-(4-((1R,2S)-6-hydroxy-2-phenyl-1,2,3,4-tetrahydronaphthalen-1-yl)phenyl)-2,7-diazaspiro[3.5]nonan-7-yl)ethyl)-6,7-dihydropyrrolo[3,4-f]isoindole-1,3(2H,5H)-dione] | 10 to 100 |
| O=C1CCC(N2C(=O)c3cc4c(cc3C2=O)CN(CCN2CC3(CCN(c5ccc([C@@H]6c7ccc(O)cc7CC[C@@H]6c6ccccc6)cc5)CC3)C2)C4)C(=O)N1 (mixture of isomers) [Compound B197, 2-(2,6-dioxopiperidin-3-yl)-6-(2-(7-(4-((1R,2S)-6-hydroxy-2-phenyl-1,2,3,4-tetrahydronaphthalen-1-yl)phenyl)-2,7-diazaspiro[3.5]nonan-2-yl)ethyl)-6,7-dihydropyrrolo[3,4-f]isoindole-1,3(2H,5H)-dione] | 10 to 100 |
| O=C1CCC(N2C(=O)c3cc4c(cc3C2=O)CN(CCN2CCC3(CC2)CCN(c2ccc([C@@H]5c6ccc(O)cc6CC[C@@H]5c5ccccc5)cc2)CC3)C4)C(=O)N1 (mixture of isomers) [Compound B198, 2-(2,6-dioxopiperidin-3-yl)-6-(2-(9-(4-((1R,2S)-6-hydroxy-2-phenyl-1,2,3,4-tetrahydronaphthalen-1-yl)phenyl)-3,9-diazaspiro[5.5]undecan-3-yl)ethyl)-6,7-dihydropyrrolo[3,4-f]isoindole-1,3(2H,5H)-dione] | 10 to 100 |
| O=C1CCC(N2C(=O)c3cc4c(cc3C2=O)CN(CC(=O)N2CCC3(CC2)CN(c2ccc([C@@H]5c6ccc(O)cc6CC[C@@H]5c5ccc(F)cc5Cl)cc2)C3)C4)C(=O)N1 (mixture of isomers) [Compound B259, 6-(2-(2-(4-((1R,2S)-2-(2-chloro-4-fluorophenyl)-6-hydroxy-1,2,3,4-tetrahydronaphthalen-1-yl)phenyl)-2,7-diazaspiro[3.5]nonan-7-yl)-2-oxoethyl)-2-(2,6-dioxopiperidin-3-yl)-6,7-dihydropyrrolo[3,4-f]isoindole-1,3(2H,5H)-dione] | 10 to 100 |
| O=C1CCC(N2C(=O)c3cc4c(cc3C2=O)CN(C(=O)CN2CC3(CCN(c5ccc([C@@H]6c7ccc(O)cc7CC[C@@H]6c6ccccc6)cc5)CC3)C2)CCC4)C(=O)N1 (mixture of isomers) [Compound B260, 2-(2,6-dioxopiperidin-3-yl)-6-(2-(7-(4-((1R,2S)-6-hydroxy-2-phenyl-1,2,3,4-tetrahydronaphthalen-1-yl)phenyl)-2,7-diazaspiro[3.5]nonan-2-yl)acetyl)-6,7,8,9-tetrahydroazepino[3,4-f]isoindole-1,3(2H,5H)-dione] | > 100 |
| O=C1CCC(N2C(=O)c3cc4c(cc3C2=O)CN(CC(=O)N2CC3(CCN(c5ccc([C@@H]6c7ccc(O)cc7CC[C@@H]6c6ccccc6)cc5)CC3)C2)CCC4)C(=O)N1 (mixture of isomers) [Compound B261, 2-(2,6-dioxopiperidin-3-yl)-6-(2-(7-(4-((1R,2S)-6-hydroxy-2-phenyl-1,2,3,4-tetrahydronaphthalen-1-yl)phenyl)-2,7-diazaspiro[3.5]nonan-2-yl)-2-oxoethyl)-6,7,8,9-tetrahydroazepino[3,4-f]isoindole-1,3(2H,5H)-dione] | > 100 |
| O=C1CCC(N2C(=O)c3cc4c(cc3C2=O)CN(C2CCN(C(=O)C3CCN(c5ccc([C@@H]6c7ccc(O)cc7CC[C@@H]6c6ccccc6)cc5)CC3)CC2)C4)C(=O)N1 (stereo partly drawn) [Compound B7, 2-(2,6-dioxopiperidin-3-yl)-6-(1-(1-(4-((1R,2S)-6-hydroxy-2-phenyl-1,2,3,4-tetrahydronaphthalen-1-yl)phenyl)piperidine-4-carbonyl)piperidin-4-yl)-6,7-dihydropyrrolo[3,4-f]isoindole-1,3(2H,5H)-dione] | < 10 |
| O=C1CCC(N2C(=O)c3cc4c(cc3C2=O)CN(C(=O)c2ccc(CC(=O)N3CCCC(Oc5ccc([C@@H]6c7ccc(O)cc7CC[C@@H]6c6ccccc6)cc5)C3)cc2)C4)C(=O)N1 (stereo partly drawn) [Compound B16, 2-(2,6-dioxopiperidin-3-yl)-6-(4-(2-(3-(4-((1R,2S)-6-hydroxy-2-phenyl-1,2,3,4-tetrahydronaphthalen-1-yl)phenoxy)piperidin-1-yl)-2-oxoethyl)benzoyl)-6,7-dihydropyrrolo[3,4-f]isoindole-1,3(2H,5H)-dione] | 10 to 100 |
| C[C@H]1CC2(CCN(CC(=O)N3Cc4cc5c(cc4C3)C(=O)N(C3CCC(=O)NC3=O)C5=O)CC2)CN1c1ccc([C@@H]2c3ccc(O)cc3CC[C@@H]2c2ccccc2)cc1 (stereo partly drawn) [Compound B25, 2-(2,6-dioxopiperidin-3-yl)-6-(2-((S)-2-(4-((1R,2S)-6-hydroxy-2-phenyl-1,2,3,4-tetrahydronaphthalen-1-yl)phenyl)-3-methyl-2,8-diazaspiro[4.5]decan-8-yl)acetyl)-6,7-dihydropyrrolo[3,4-f]isoindole-1,3(2H,5H)-dione] | > 100 |
| C[C@@H]1CC2(CCN(c3ccc([C@@H]4c5ccc(O)cc5CC[C@@H]4c4ccc(F)cc4)cc3)CC2)CN1CC(=O)N1Cc2cc3c(cc2C1)C(=O)N(C1CCC(=O)NC1=O)C3=O (stereo partly drawn) [Compound B27, 2-(2,6-dioxopiperidin-3-yl)-6-(2-((R)-8-(4-((1R,2S)-2-(4-fluorophenyl)-6-hydroxy-1,2,3,4-tetrahydronaphthalen-1-yl)phenyl)-3-methyl-2,8-diazaspiro[4.5]decan-2-yl)acetyl)-6,7-dihydropyrrolo[3,4-f]isoindole-1,3(2H,5H)-dione] | > 100 |
| O=C1CCC(N2C(=O)c3cc4c(cc3C2=O)CN(CC(=O)N2CCC[C@H](Oc3ccc([C@@H]5c6ccc(O)cc6CC[C@@H]5c5ccc(F)cc5)cc3)C2)C4)C(=O)N1 (stereo partly drawn) [Compound B36, 2-(2,6-dioxopiperidin-3-yl)-6-(2-((S)-3-(4-((1R,2S)-2-(4-fluorophenyl)-6-hydroxy-1,2,3,4-tetrahydronaphthalen-1-yl)phenoxy)piperidin-1-yl)-2-oxoethyl)-6,7-dihydropyrrolo[3,4-f]isoindole-1,3(2H,5H)-dione] | > 100 |
| O=C1CCC(N2C(=O)c3cc4c(cc3C2=O)CN(CC2CN(C(=O)C3CN(c5ccc([C@@H]6c7ccc(O)cc7CC[C@@H]6c6ccccc6)cc5)C3)C2)C4)C(=O)N1 (stereo partly drawn) [Compound B37, 2-(2,6-dioxopiperidin-3-yl)-6-((1-(1-(4-((1R,2S)-6-hydroxy-2-phenyl-1,2,3,4-tetrahydronaphthalen-1-yl)phenyl)azetidine-3-carbonyl)azetidin-3-yl)methyl)-6,7-dihydropyrrolo[3,4-f]isoindole-1,3(2H,5H)-dione] | > 100 |
| O=C1CCC(N2C(=O)c3cc4c(cc3C2=O)CN(C(=O)CN2CCC[C@H](Oc3ccc([C@@H]5c6ccc(O)cc6CC[C@@H]5c5ccc(F)cc5)cc3)C2)C4)C(=O)N1 (stereo partly drawn) [Compound B38, 2-(2,6-dioxopiperidin-3-yl)-6-(2-((S)-3-(4-((1R,2S)-2-(4-fluorophenyl)-6-hydroxy-1,2,3,4-tetrahydronaphthalen-1-yl)phenoxy)piperidin-1-yl)acetyl)-6,7-dihydropyrrolo[3,4-f]isoindole-1,3(2H,5H)-dione] | > 100 |
| O=C1CCC(N2C(=O)c3cc4c(cc3C2=O)CCN(CC(=O)N2CCC3(CC2)CCN(c2ccc([C@@H]5c6ccc(O)cc6CC[C@@H]5c5ccccc5)cc2)CC3)CC4)C(=O)N1 (stereo partly drawn) [Compound B39, 2-(2,6-dioxopiperidin-3-yl)-7-(2-(9-(4-((1R,2S)-6-hydroxy-2-phenyl-1,2,3,4-tetrahydronaphthalen-1-yl)phenyl)-3,9-diazaspiro[5.5]undecan-3-yl)-2-oxoethyl)-6,7,8,9-tetrahydroazepino[4,5-f]isoindole-1,3(2H,5H)-dione] | > 100 |
| O=C1CCC(N2C(=O)c3cc4c(cc3C2=O)CCN(C(=O)CN2CCC3(CC2)CCN(c2ccc([C@@H]5c6ccc(O)cc6CC[C@@H]5c5ccccc5)cc2)CC3)CC4)C(=O)N1 (stereo partly drawn) [Compound B40, 2-(2,6-dioxopiperidin-3-yl)-7-(2-(9-(4-((1R,2S)-6-hydroxy-2-phenyl-1,2,3,4-tetrahydronaphthalen-1-yl)phenyl)-3,9-diazaspiro[5.5]undecan-3-yl)acetyl)-6,7,8,9-tetrahydroazepino[4,5-f]isoindole-1,3(2H,5H)-dione] | > 100 |
| O=C1CCC(N2C(=O)c3cc4c(cc3C2=O)CCN(CC(=O)N2CC3(CCN(c5ccc([C@@H]6c7ccc(O)cc7CC[C@@H]6c6ccccc6)cc5)CC3)C2)CC4)C(=O)N1 (stereo partly drawn) [Compound B41, 2-(2,6-dioxopiperidin-3-yl)-7-(2-(7-(4-((1R,2S)-6-hydroxy-2-phenyl-1,2,3,4-tetrahydronaphthalen-1-yl)phenyl)-2,7-diazaspiro[3.5]nonan-2-yl)-2-oxoethyl)-6,7,8,9-tetrahydroazepino[4,5-f]isoindole-1,3(2H,5H)-dione] | > 100 |
| O=C1CCC(N2C(=O)c3cc4c(cc3C2=O)CCN(C(=O)CN2CC3(CCN(c5ccc([C@@H]6c7ccc(O)cc7CC[C@@H]6c6ccccc6)cc5)CC3)C2)CC4)C(=O)N1 (stereo partly drawn) [Compound B42, 2-(2,6-dioxopiperidin-3-yl)-7-(2-(7-(4-((1R,2S)-6-hydroxy-2-phenyl-1,2,3,4-tetrahydronaphthalen-1-yl)phenyl)-2,7-diazaspiro[3.5]nonan-2-yl)acetyl)-6,7,8,9-tetrahydroazepino[4,5-f]isoindole-1,3(2H,5H)-dione] | > 100 |
